According to publication PMC5983663, “Design, Synthesis, and Biological Evaluation of Benzimidazole-Derived Biocompatible Copper(II) and Zinc(II) Complexes as Anticancer Chemotherapeutics” (International Journal of Molecular Sciences, 2018):

How the values were obtained:
Experiment in all cases: MTT assay
Assay type in all cases: cell-based, human
[1] = test system: SK-MEL-1 (Skin); conditions: SK-MEL-1, 48 h; NA stands for Not Active
Method: (§1) Human cancer cell lines HepG2 (Liver), SK-MEL-1 (Skin), HT 018 (Colon), HeLa (Cervical), and MDA-MB 231 (Breast) were procured from the American Type Culture Collection (Rockville, MD, USA). MDA-MB-231 and HepG2 cell lines were maintained in DMEM; whereas SK-MEL-1, HeLa, and HT-018 were maintained in RPMI medium. The complete growth medium was supplemented with 10% (v/v) heat-inactivated FCS, 2 mM L-glutamine, and antimycotic-antibiotic solution. All of the cells were maintained in a standard culture condition of 37 °C temperature and 95% humidified atmosphere containing 5% CO2. Cells were screened periodically for mycoplasma contamination.
(§2) The novel complexes 1 and 2 were examined for their cytotoxicity against five different types of cancer cell lines viz., HepG2, SK-MEL-1, HT 018, HeLa, and MDA-MB 231 using a standard MTT reduction assay, according to Khan et al. (2012). Briefly, cells at a concentration of 1 × 10^6 cells/[…]/well were plated in 96-well plates and further grown in their respective medium containing 10% FCS. After 24 h, cells were incubated with 0–25 μM concentrations of test complexes or respective free ligands. Cells with 0.1% DMSO (vehicle control) and cisplatin (positive control) were also cultured under the same conditions. Cells only were used as negative control. Ensuing 48 h of incubation, old medium from treated cells was replaced with fresh medium. MTT reagent (5 mg/mL in PBS) was added to each well, and cells were further incubated for 2–3 h at 37 °C. After treatment, the supernatants were carefully removed, and 100 μL of DMSO was added to each well. Absorbance was measured at 620 nm in a multi-well plate reader, and drug sensitivity was expressed in terms of the concentration of drug required for a 50% reduction of cell viability (IC50).

[2] = test system: HepG2 (Liver); conditions: HepG2, 48 h; NA stands for Not Active
Method: as §1, §2

[3] = test system: MDA-MB 231 (Breast); conditions: MDA-MB 231, 48 h; NA stands for Not Active
Method: as §1, §2

[4] = test system: HT018 (Colon); conditions: HT018, 48 h; NA stands for Not Active
Method: as §1, §2

[5] = test system: HeLa (Cervical); conditions: 48 h, NA stands for Not Active
Method: as §1, §2

## N.N.[Cl][Pt][Cl] [Cisplatin, cisplatin, reference compound]
[1]
  IC50: 5.6 ± 0.8 µM
[2]
  IC50: 6 ± 0.4 µM
[3]
  IC50: 3.1 ± 0.2 µM
[4]
  IC50: 5.7 ± 0.2 µM
[5]
  IC50: 6 ± 0.6 µM
